In US7851474B2, “Dipiperazinyl ketones and related analogues” (Neurogen Corporation, priority 2005, dated 2010):

Biological target: T1, chimeric human H3 receptor (Homo sapiens, UniProt Q9Y5N1, E19D)
T1 construct: made in house; host or cells: Sf9 insect cells (baculovirus infection); P2 membrane preparation
Experiment: Chimeric human H3 receptor GTP binding assay (agonist-stimulated GTP-gamma35S binding, Example 7)
Format: biochemical
Conditions: Table II; assay of Example 7; "*" in Ki; read-out: Ki
Procedure, shortened: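 IC50 values come from non-linear regression of dose-response curves of filter-bound GTP-gamma^35S, counted by scintillation. Membranes were from infected Sf9 cells carrying receptor plus G-protein subunits, 35 μg/tube, with 10 μM GDP present.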

T1 sequence (Q9Y5N1 with tags, fused parts or gaps E19D): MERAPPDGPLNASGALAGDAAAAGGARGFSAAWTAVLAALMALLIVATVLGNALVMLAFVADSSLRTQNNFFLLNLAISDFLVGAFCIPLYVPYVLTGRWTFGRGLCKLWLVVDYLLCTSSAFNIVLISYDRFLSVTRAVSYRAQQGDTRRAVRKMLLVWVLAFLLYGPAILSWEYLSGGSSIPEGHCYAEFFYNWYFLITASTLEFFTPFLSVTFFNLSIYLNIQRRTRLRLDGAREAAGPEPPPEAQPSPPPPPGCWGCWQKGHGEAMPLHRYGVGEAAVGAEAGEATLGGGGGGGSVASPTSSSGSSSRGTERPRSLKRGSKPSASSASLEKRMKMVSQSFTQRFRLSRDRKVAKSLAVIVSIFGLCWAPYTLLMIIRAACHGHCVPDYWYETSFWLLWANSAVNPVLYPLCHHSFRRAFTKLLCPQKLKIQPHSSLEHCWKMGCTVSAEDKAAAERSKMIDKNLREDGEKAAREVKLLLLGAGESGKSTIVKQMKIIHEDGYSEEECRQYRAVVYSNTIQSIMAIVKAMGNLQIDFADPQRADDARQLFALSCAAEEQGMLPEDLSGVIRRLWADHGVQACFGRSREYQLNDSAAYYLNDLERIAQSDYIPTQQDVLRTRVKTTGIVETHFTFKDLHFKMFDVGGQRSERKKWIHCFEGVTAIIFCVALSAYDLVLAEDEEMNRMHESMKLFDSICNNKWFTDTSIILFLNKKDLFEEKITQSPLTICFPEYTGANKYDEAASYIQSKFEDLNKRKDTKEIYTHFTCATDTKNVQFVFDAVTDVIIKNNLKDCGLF

Ki, < 1000 nM:
N#Cc1ccc(-c2cnc(N3CCN(CC(=O)N4CCN(C5CCC5)CC4)CC3)cn2)cc1 [Compound 1098, 4-(5-{4-[2-(4-cyclobutylpiperazin-1-yl)-2-oxoethyl]piperazin-1-yl}pyrazin-2-yl)benzonitrile]
CN(C)c1ccc(-c2ccc(N3CCN(CC(=O)N4CCN(C5CCC5)CC4)CC3)nn2)cc1 [Compound 1099, 4-(6-{4-[2-(4-cyclobutylpiperazin-1-yl)-2-oxoethyl]piperazin-1-yl}pyndazin-3-yl)-N,N-dimethylaniline]
N#Cc1ccc(-c2ccc(N3CCN(CC(=O)N4CCN(C5CCC5)CC4)CC3)nn2)cc1 [Compound 1100, 4-(6-{4-[2-(4-cyclobutylpiperazin-1-yl)-2-oxoethyl]piperazin-1-yl}pyridazin-3-yl)benzonitrile]
O=C(CN1CCN(c2ccc(C(=O)N3CCSCC3)cn2)CC1)N1CCN(C2CCC2)CC1 [Compound 1101]
C=CCN1CCN(C(=O)CN2CCN(c3ccc(OC)cc3)C(C)C2)CC1 (stereo not drawn) [Compound 1102, 4-[2-(4-allylpiperazin-1-yl)-2-oxoethyl]-1-(4-methoxyphenyl)-2-methylpiperazine]
COc1ccc(N2CCN(CC(=O)N3CCN(C4CCC4)CC3)CC2C)cc1 (stereo not drawn) [Compound 1103, 4-[2-(4-cyclobutylpiperazin-1-yl)-2-oxoethyl]-1-(4-methoxyphenyl)-2-methylpiperazine]
Cc1cccc(N2CCN(CC(=O)N3CCN(C4CCC4)CC3)CC2C)c1 (stereo not drawn) [Compound 1104, 4-[2-(4-cyclobutylpiperazin-1-yl)-2-oxoethyl]-2-methyl-1-(3-methylphenyl)piperazine]
Cc1ccc(N2CCN(CC(=O)N3CCN(C4CCC4)CC3)CC2C)cc1 (stereo not drawn) [Compound 1105, 4-[2-(4-cyclobutylpiperazin-1-yl)-2-oxoethyl]-2-methyl-1-(4-methylphenyl)piperazine]
COc1ccc(N2CCN(CC(=O)N3CCN(C4CCCCC4)CC3)CC2C)cc1 (stereo not drawn) [Compound 1106, 4-[2-(4-cyclohexylpiperazin-1-yl)-2-oxoethyl]-1-(4-methoxyphenyl)-2-methylpiperazine]
Cc1ccc(N2CCN(CC(=O)N3CCN(C4CCCC4)CC3)CC2C)cc1 (stereo not drawn) [Compound 1109, 4-[2-(4-cyclopentylpiperazin-1-yl)-2-oxoethyl]-2-methyl-1-(4-methylphenyl)piperazine]
CCN1CCN(C(=O)CN2CCN(c3ccc(OC)cc3)C(C)C2)CC1 (stereo not drawn) [Compound 1110, 4-[2-(4-ethylpiperazin-1-yl)-2-oxoethyl]-1-(4-methoxyphenyl)-2-methylpiperazine]
COc1ccc(N2CCN(CC(=O)N3CCN(C(C)C)CC3)CC2C)cc1 (stereo not drawn) [Compound 1111, 4-[2-(4-isopropylpiperazin-1-yl)-2-oxoethyl]-1-(4-methoxyphenyl)-2-methylpiperazine]
CCC(C)N1CCN(C(=O)CN2CCN(c3ccc(OC)cc3)C(C)C2)CC1 (stereo not drawn) [Compound 1113, 4-[2-(4-sec-butylpiperazin-1-yl)-2-oxoethyl]-1-(4-methoxyphenyl)-2-methylpiperazine]
CCC(C)N1CCN(C(=O)CN2CCN(c3cccc(C)c3)C(C)C2)CC1 (stereo not drawn) [Compound 1114, 4-[2-(4-sec-butylpiperazin-1-yl)-2-oxoethyl]-2-methyl-1-(3-methylphenyl)piperazine]
O=C(CN1CCC(N2CCOCC2)CC1)N1CCN(C2CCC2)CC1 [Compound 1115, 4-{1-[2-(4-cyclobutylpiperazin-1-yl)-2-oxoethyl]piperidin-4-yl}morpholine]
CCC(C)N1CCN(C(=O)CN2CCC(N3CCOCC3)CC2)CC1 (stereo not drawn) [Compound 1116, 4-{1-[2-(4-sec-butylpiperazin-1-yl)-2-oxoethyl]piperidin-4-yl}morpholine]
CN(C)c1cccc(-c2ccc(N3CCN(CC(=O)N4CCN(C5CCC5)CC4)CC3)cc2)c1 [Compound 1117, 4′-{1-[2-(4-cyclobutylpiperazin-1-yl)-2-oxoethyl]piperazin-1-yl}-N,N-dimethylbiphenyl-3-amine]
N#Cc1cccc(-c2ccc(N3CCN(CC(=O)N4CCN(C5CCC5)CC4)CC3)cc2)c1 [Compound 1118, 4′-{1-[2-(4-cyclobutylpiperazin-1-yl)-2-oxoethyl]piperazin-1-yl}biphenyl-3-carbonitrile]
N#Cc1ccc(-c2ccc(N3CCN(CC(=O)N4CCN(C5CCC5)CC4)CC3)cc2)cc1 [Compound 1119, 4′-{1-[2-(4-cyclobutylpiperazin-1-yl)-2-oxoethyl]piperazin-1-yl}biphenyl-4-carbonitrile]
O=C(O)c1ccc(N2CCN(CC(=O)N3CCN(C4CCC4)CC3)CC2)cc1 [Compound 1120, 4-{1-[2-(4-cyclobutylpiperazin-1-yl)-2-oxoethyl]piperazin-1-yl}benzoic acid]
N#Cc1ccc(N2CCN(CC(=O)N3CCN(C4CCC4)CC3)CC2)cc1 [Compound 1121, 4-{1-[2-(4-cyclobutylpiperazin-1-yl)-2-oxoethyl]piperazin-1-yl}benzonitrile]
CNC(=O)c1ccc(N2CCN(CC(=O)N3CCN(C4CCC4)CC3)CC2)cc1 [Compound 1122, 4-{1-[2-(4-cyclobutylpiperazin-1-yl)-2-oxoethyl]piperazin-1-yl}-N-methylbenzamide]
CN(C)C(=O)c1ccc(N2CCN(CC(=O)N3CCN(C4CCC4)CC3)CC2)cc1 [Compound 1123, 4-{1-[2-(4-cyclobutylpiperazin-1-yl)-2-oxoethyl]piperazin-1-yl}-N,N-dimethylbenzamide]
CCNC(=O)c1ccc(N2CCN(CC(=O)N3CCN(C4CCC4)CC3)CC2)cc1 [Compound 1124, 4-{1-[2-(4-cyclobutylpiperazin-1-yl)-2-oxoethyl]piperazin-1-yl}-N-ethylbenzamide]
CCN(CC)C(=O)c1ccc(N2CCN(CC(=O)N3CCN(C4CCC4)CC3)CC2)cc1 [Compound 1125, 4-{4-[2-(4-cyclobutylpiperazin-1-yl)-2-oxoethyl]piperazin-1-yl}-N,N-diethylbenzamide]
CCN(C(=O)c1ccc(N2CCN(CC(=O)N3CCN(C4CCC4)CC3)CC2)cc1)C(C)C [Compound 1126, 4-{4-[2-(4-cyclobutylpiperazin-1-yl)-2-oxoethyl]piperazin-1-yl}-N-ethyl-N-isopropylbenzamide]
CC(C)N(C)C(=O)c1ccc(N2CCN(CC(=O)N3CCN(C4CCC4)CC3)CC2)cc1 [Compound 1127, 4-{4-[2-(4-cyclobutylpiperazin-1-yl)-2-oxoethyl]piperazin-1-yl}-N-isopropyl-N-methylbenzamide]
CN(C(=O)c1ccc(N2CCN(CC(=O)N3CCN(C4CCC4)CC3)CC2)cc1)C1CCCCC1 [Compound 1128, 4-{4-[2-(4-cyclobutylpiperazin-1-yl)-2-oxoethyl]piperazin-1-yl}-N-cyclohexyl-N-methylbenzamide]
CCN(C(=O)c1ccc(N2CCN(CC(=O)N3CCN(C4CCC4)CC3)CC2)cc1)C1CCCCC1 [Compound 1129, 4-{4-[2-(4-cyclobutylpiperazin-1-yl)-2-oxoethyl]piperazin-1-yl}-N-cyclohexyl-N-ethylbenzamide]
COCCN(C(=O)c1ccc(N2CCN(CC(=O)N3CCN(C4CCC4)CC3)CC2)cc1)C(C)C [Compound 1130, 4-{4-[2-(4-cyclobutylpiperazin-1-yl)-2-oxoethyl]piperazin-1-yl}-N-isopropyl-N-(2-methoxyethyl)benzamide]
CCC(C)CNC(=O)c1ccc(N2CCN(CC(=O)N3CCN(C4CCC4)CC3)CC2)cc1 (stereo not drawn) [Compound 1131, 4-{4-[2-(4-cyclobutylpiperazin-1-yl)-2-oxoethyl]piperazin-1-yl}-N-(2-methylbutyl)benzamide]
CCCNC(=O)c1ccc(N2CCN(CC(=O)N3CCN(C4CCC4)CC3)CC2)cc1 [Compound 1132, 4-{4-[2-(4-cyclobutylpiperazin-1-yl)-2-oxoethyl]piperazin-1-yl}-N-propylbenzamide]
O=C(NCC1CC1)c1ccc(N2CCN(CC(=O)N3CCN(C4CCC4)CC3)CC2)cc1 [Compound 1133, 4-{4-[2-(4-cyclobutylpiperazin-1-yl)-2-oxoethyl]piperazin-1-yl}-N-(cyclopropylmethyl) benzamide]
CC(C)CNC(=O)c1ccc(N2CCN(CC(=O)N3CCN(C4CCC4)CC3)CC2)cc1 [Compound 1134, 4-{4-[2-(4-cyclobutylpiperazin-1-yl)-2-oxoethyl]piperazin-1-yl}-N-isobutylbenzamide]
CCCCCNC(=O)c1ccc(N2CCN(CC(=O)N3CCN(C4CCC4)CC3)CC2)cc1 [Compound 1135, 4-{4-[2-(4-cyclobutylpiperazin-1-yl)-2-oxoethyl]piperazin-1-yl}-N-pentylbenzamide]
CC(C)CCNC(=O)c1ccc(N2CCN(CC(=O)N3CCN(C4CCC4)CC3)CC2)cc1 [Compound 1136, 4-{4-[2-(4-cyclobutylpiperazin-1-yl)-2-oxoethyl]piperazin-1-yl}-N-(3-methylbutyl)benzamide]
O=C(NCC(F)(F)F)c1ccc(N2CCN(CC(=O)N3CCN(C4CCC4)CC3)CC2)cc1 [Compound 1137, 4-{4-[2-(4-cyclobutylpiperazin-1-yl)-2-oxoethyl]piperazin-1-yl}-N-(2,2,2-trifluoroethyl)benzamide]

Same assay, conditions: assay of Example 7; "*" in Ki of Table II; read-out: Ki

Ki, < 1000 nM:
O=C(NC1CC1)c1ccc(N2CCN(CC(=O)N3CCN(C4CCC4)CC3)CC2)cc1 [Compound 1138, 4-{4-[2-(4-cyclobutylpiperazin-1-yl)-2-oxoethyl]piperazin-1-yl}-N-cyclopropylbenzamide]
O=C(NC1CCCCC1)c1ccc(N2CCN(CC(=O)N3CCN(C4CCC4)CC3)CC2)cc1 [Compound 1139, 4-{4-[2-(4-cyclobutylpiperazin-1-yl)-2-oxoethyl]piperazin-1-yl}-N-cyclohexylbenzamide]
